According to ChEMBL document CHEMBL1921768, “Identification of novel CYP2A6 inhibitors by virtual screening” (Bioorg Med Chem, 2011):

Tests used:
Format in all cases: ADME, Microsome
Cytochrome P450 2A6 [1] = biological target: T1, Cytochrome P450 2A6 (Homo sapiens, UniProt P11509); assay: Inhibition of CYP2A6 in human liver microsomes assessed as inhibition of coumarin 7-hydroxylation after 10 mins by plate reader
T1 sequence (P11509 whole entry): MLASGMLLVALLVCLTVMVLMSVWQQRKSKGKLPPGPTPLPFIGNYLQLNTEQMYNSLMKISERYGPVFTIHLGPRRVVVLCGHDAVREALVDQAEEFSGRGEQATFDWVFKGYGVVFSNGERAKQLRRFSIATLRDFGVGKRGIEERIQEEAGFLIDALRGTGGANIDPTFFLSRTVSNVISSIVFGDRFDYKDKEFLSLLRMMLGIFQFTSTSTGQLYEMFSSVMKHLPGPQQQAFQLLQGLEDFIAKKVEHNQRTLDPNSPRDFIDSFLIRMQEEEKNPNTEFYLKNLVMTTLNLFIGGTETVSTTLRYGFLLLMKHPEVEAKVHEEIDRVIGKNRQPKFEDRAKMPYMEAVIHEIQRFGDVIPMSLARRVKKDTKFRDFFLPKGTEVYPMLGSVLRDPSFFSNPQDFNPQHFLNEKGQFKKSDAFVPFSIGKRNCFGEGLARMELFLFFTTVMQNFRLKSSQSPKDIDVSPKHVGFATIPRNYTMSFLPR

Cytochrome P450 2A6 [2] = biological target: T1, Cytochrome P450 2A6; assay: Inhibition of CYP2A6 in human liver microsomes assessed as inhibition of coumarin 7-hydroxylation after 30 mins preincubation by plate reader
Cytochrome P450 2A6 [3] = biological target: T1, Cytochrome P450 2A6; assay: Irreversible inhibition of CYP2A6 in human liver microsomes assessed as coumarin 7-hydroxylation activity after 1 to 5 mins in presence of NADPH
Cytochrome P450 2A6 [4] = biological target: T1, Cytochrome P450 2A6; assay: Irreversible inhibition of CYP2A6 in human liver microsomes assessed as coumarin 7-hydroxylation activity in presence of NADPH; settings: TDE = time-dependent effect
CYP2A6 = biological target: T2, CYP2A6 (Homo sapiens, UniProt P11509); assay: (§1) Irreversible inhibition of CYP2A6 in human liver microsomes assessed as coumarin 7-hydroxylation activity by double reciprocal plot analysis in presence of NADPH; settings: human, liver microsomes, probe coumarin (7-hydroxylation)
T2 sequence (P11509 whole entry): T1 sequence (P11509 whole entry)

Cytochrome P450 2A6 [5] = biological target: T1, Cytochrome P450 2A6; assay: as §1

Row | SMILES | IC50 (Cytochrome P450 2A6 [1]) [µM] | other results
1 | Brc1cccc2[nH]ccc12 | > 100 | –
2 | O=Cc1ccc(-c2cccs2)cc1 | > 100 | –
3 | O=C(O)c1cc2ccccc2s1 | > 100 | –
4 | N#Cc1c(Cl)cccc1OCC(F)(F)F | > 100 | –
5 | N#CCSc1nnc(N)s1 | > 100 | –
6 | N#Cc1ccc(C=O)cc1 | > 100 | –

Now those with a lower IC50 (Cytochrome P450 2A6 [1]), led by results:

Row | IC50 (Cytochrome P450 2A6 [1]) [µM] | SMILES | other results
7 | 0.1 | NCc1cc2ccccc2s1 | –
8 | 6.4 | Brc1ccc2[nH]ccc2c1 | –
9 | 1.7 | NCc1ccc2sccc2c1 | IC50 (Cytochrome P450 2A6 [2]): 0.6 µM
10 | 1.5 | NCc1csc2ccccc12 | IC50 (Cytochrome P450 2A6 [2]): 0.2 µM
11 | 1.6 | O=Cc1csc2ccccc12 | inhibition (INH) (Cytochrome P450 2A6 [3]): Dose-dependent effect; inhibition (INH) (Cytochrome P450 2A6 [4]): tde; IC50 (Cytochrome P450 2A6 [2]): 0.05 µM; kinact (CYP2A6): 0.006 s⁻¹; Ki (Cytochrome P450 2A6 [5]): 29 µM
